Laboratory results as given in patent US7915383B2, “Method of separating a peptidoglycan recognition protein from a hemolymph Tenebrio molitor larvae” (Yuhan Corporation, priority 2006, dated 2011).

What was measured:
[1] = test system: amidase activity; experiment: Amidase activity assay with Boc-Phe-Ser-Arg-MCA substrate; format: biochemical, Tenebrio molitor; conditions: S. aureus PGN 1 μg plus synthetic PGN, 40 μM Boc-Phe-Ser-Arg-MCA, 30° C., fluorescence 380/460 nm; FIG. 6
Protocol: 10 μl of a 10% gram-positive S. aureus PGN (final concentration: 1 μg) solution and 10 μl of a 10% synthetic PGN (the compound 35 of Formula 3) solution were incubated in the presence of 40 μM trypsin MCA (t-butyloxycarbonyl-benzyl-L-phenylalanyl-L-seryl-L-arginine-4-methylcoumaryl-7-amide; Boc-Phe-Ser-Arg-MCA) as a substrate at 30° C., and fluorescence was measured at 380 nm (excitation wavelength) and 460 nm (emission wavelength) using a fluorescence spectrophotometer (model UV-160A, Shimadzu).

[2] = test system: natural PGN-dependent PO activity in the hemolymph of Tenebrio molitor larvae; experiment: Inhibition of natural PGN-dependent PO activity by synthetic PGN; format: biochemical
Protocol: (§1) PO activity was assayed according to a Pye-spectrophotometric method using a substrate solution (4-methylcatechol, and 4-hydroxyproline ethylester in HCl). 4-methylcatechol was oxidized to quinone by PO, which was then converted through a non-enzymatic reaction with 4-hydroxyproline ethylester in HCl to 4-(4′-hydroxyl-2′-carbethoxy-1′-pyrroline)-5-methyl-o-benzoquinone, a stable compound having maximum absorbance at 520 nm (see FIG. 2)
Each of 10 μl (1 μg) of a 10% β-1,3-glucan solution, 10 μl. (1 μg) of a 10% S. aureus PGN solution, 10 μl (10 ng) of a 10% M. luteus PGN solution, and 10 μl (1 μg) of a 10% synthetic PGN (for each of the compounds of Formulae 1-4) solution was incubated together with 30 μl (protein 350 μg) of the hemolymph of Tenebrio molitor larvae at 30° C. for 5 minutes. Then, 4 μl of 4-methylcatechol (250 mM), 16 μl of 4-hydroxyproline ethylester (62.5 mM) in HCl, and 5 μl of 1M CaCl2 (10 mM) were added thereto. […] The reaction mixture was incubated at 30° C. and the absorbance of the reaction solution was measured at 520 nm (see FIG. 3).
Meanwhile, PO activity was also measured in the presence of 1 μg of S. aureus PGN and 1 μg of each of the synthetic PGNs.
Furthermore, PO activity was also measured in the presence of 1 μg of S. aureus PGN with an incremental addition of the synthetic PGN of Formula 3 (0.2, 0.4, 0.8, and 1.5 μg).

[3] = test system: PGN-dependent pro-PO cascade in the hemolymph of Tenebrio molitor larvae; experiment: PO activity assay (Pye-spectrophotometric method): effect of natural or synthetic PGN on PO activation; format: biochemical; conditions: 30 μl hemolymph (protein 350 μg), 1 μg test substance (10 ng M. luteus PGN), 30° C.; FIG. 3
Protocol: as §1
Each of 10 μl (1 μg) of a 10% β-1,3-glucan solution, 10 μl. (1 μg) of a 10% S. aureus PGN solution, 10 μl (10 ng) of a 10% M. luteus PGN solution, and 10 μl (1 μg) of a 10% synthetic PGN (for each of the compounds of Formulae 1-4) solution was incubated together with 30 μl (protein 350 μg) of the hemolymph of Tenebrio molitor larvae at 30° C. for 5 minutes. Then, 4 μl of 4-methylcatechol (250 mM), 16 μl of 4-hydroxyproline ethylester (62.5 mM) in HCl, and 5 μl of 1M CaCl2 (10 mM) were added thereto. Then, 20 mM Tris-HCl (pH 8.0) was added to a final volume of 500 μl. The reaction mixture was incubated at 30° C. and the absorbance of the reaction solution was measured at 520 nm (see FIG. 3).

Substance	inhibition of amidase activity [1]	inhibition of PO activity with incremental addition of synthetic PGN ([2]; 1 μg of S. aureus PGN plus 0.2, 0.4, 0.8 and 1.5 μg synthetic PGN, FIG. 5)	inhibition of PGN-dependent PO activity ([2]; in the presence of 1 μg of S. aureus PGN and 1 μg of each synthetic PGN, FIG. 4)	activation of the PGN-dependent pro-PO cascade (PO activity, absorbance at 520 nm) [3]
Tetrasaccharide Tetrapeptide [compound 35]	same inhibition pattern as the PO activity	inhibited in a synthetic PGN concentration-dependent manner	strongest competitive inhibitor	
β-1,3-glucan				activated
